Data from ChEMBL document CHEMBL4354828, “Discovery of Taniborbactam (VNRX-5133): A Broad-Spectrum Serine- and Metallo-β-lactamase Inhibitor for Carbapenem-Resistant Bacterial Infections” (J Med Chem, 2020).
≈ marks a conversion by molar mass, not a printed value.

What was measured:
Format in all cases: functional
[1] = tested on: Escherichia coli; assay: Antibacterial activity against Escherichia coli J53 expressing SHV5/ AmpC/TEM-1 after 16 to 20 hrs by CLSI-based microbroth dilution method
[2] = tested on: Pseudomonas aeruginosa; assay: Antibacterial activity against wild type Pseudomonas aeruginosa 27853 after 16 to 20 hrs by CLSI-based microbroth dilution method
[3] = tested on: Staphylococcus aureus; assay: Antibacterial activity against wild type Staphylococcus aureus ATCC 29213 after 16 to 20 hrs by CLSI-based microbroth dilution method
[4] = tested on: Enterobacter cloacae; assay: Antibacterial activity against Enterobacter cloacae 144200 expressing p99 AmpC after 16 to 20 hrs by CLSI-based microbroth dilution method
[5] = tested on: Escherichia coli; assay: Antibacterial activity against wild type Escherichia coli ATCC 25922 after 16 to 20 hrs by CLSI-based microbroth dilution method
[6] = tested on: Klebsiella aerogenes; assay: Antibacterial activity against Enterobacter aerogenes 188548 expressing AmpC after 16 to 20 hrs by CLSI-based microbroth dilution method
[7] = tested on: Staphylococcus aureus; assay: Antibacterial activity against methicillin resistant Staphylococcus aureus 33591 after 16 to 20 hrs by CLSI-based microbroth dilution method
[8] = tested on: Klebsiella pneumoniae; assay: Antibacterial activity against wild type Klebsiella pneumoniae CI 09 after 16 to 20 hrs by CLSI-based microbroth dilution method
[9] = tested on: Pseudomonas aeruginosa; assay: Antibacterial activity against Pseudomonas aeruginosa Ps296 AmpC/VIM-2/TEM-1 after 16 to 20 hrs by CLSI-based microbroth dilution method
[10] = tested on: Klebsiella pneumoniae; assay: Antibacterial activity against Klebsiella pneumoniae 11978 expressing OXA-48 after 16 to 20 hrs by CLSI-based microbroth dilution method
[11] = tested on: Klebsiella pneumoniae; assay: Antibacterial activity against Klebsiella pneumoniae UMM expressing SHV5/KPC-2/TEM-1 after 16 to 20 hrs by CLSI-based microbroth dilution method
[12] = tested on: Klebsiella pneumoniae; assay: Antibacterial activity against Klebsiella pneumoniae A-1797 expressing KPC-2/VIM-4/CMY-4 after 16 to 20 hrs by CLSI-based microbroth dilution method

Structure (SMILES)	MIC [1] [mg/L]	MIC [2] [mg/L]	MIC [3] [mg/L]	MIC [4] [mg/L]	MIC [5] [mg/L]	MIC [6] [mg/L]	MIC [7] [mg/L]	MIC [8] [mg/L]	MIC [9] [mg/L]	MIC [10] [mg/L]	MIC [11] [mg/L]	MIC [12] [mg/L]
C[C@@H](O)[C@H]1C(=O)N2C(C(=O)O)=C(S[C@@H]3CN[C@H](C(=O)N(C)C)C3)[C@H](C)[C@H]12 [MEROPENEM]	0.06 (≈ 0.156 µM)	1 (≈ 2.61 µM)	0.06 (≈ 0.156 µM)	0.25 (≈ 0.652 µM)	0.03 (≈ 0.0782 µM)	2 (≈ 5.22 µM)	32 (≈ 83.4 µM)	0.06 (≈ 0.156 µM)	–	–	–	–
Cc1onc(-c2ccccc2)c1C(=O)N[C@@H]1C(=O)N2[C@@H]1SC(C)(C)[C@@H]2C(=O)O [OXACILLIN]	> 128	> 128	0.125 (≈ 0.311 µM)	> 128	> 128	> 128	> 128	> 128	> 128	> 128	> 128	> 128
